Assay results taken from patent US12043632B2, “6-heteroaryloxy benzimidazoles and azabenzimidazoles as JAK2 inhibitors” (Ajax Therapeutics, Inc., priority 2020, dated 2024).

Target: T1, JAK2 (JH1domain-catalytic, Y1007F,Y1008F) kinase (Homo sapiens, UniProt O60674, Y1007F/Y1008F)
T1 construct: JAK2 (JH1domain-catalytic, Y1007F,Y1008F) kinase was expressed as N-terminal fusion; made in house; host or cells: transiently transfected HEK293 cells
Assay: JAK2 JH1 Domain Binding Assay
Settings: qPCR readout

T1 sequence (O60674 849-1124 Y1007F/Y1008F limits assumed): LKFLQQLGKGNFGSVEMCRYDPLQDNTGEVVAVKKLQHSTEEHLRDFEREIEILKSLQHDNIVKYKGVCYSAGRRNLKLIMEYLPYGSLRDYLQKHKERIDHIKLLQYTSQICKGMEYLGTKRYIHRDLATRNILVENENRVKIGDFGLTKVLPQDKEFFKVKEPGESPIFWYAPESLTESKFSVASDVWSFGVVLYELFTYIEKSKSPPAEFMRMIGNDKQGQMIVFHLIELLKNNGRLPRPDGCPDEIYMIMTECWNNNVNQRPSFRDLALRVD

Kd [nM]	Compound
50 to 1000	CNc1nccn2ncc(Oc3cnc4nc(Nc5cc(C(F)(F)F)c(C#N)n(C)c5=O)n(C)c4c3Cl)c12 [Example I-233, 5-((7-chloro-1-methyl-6-((4-(methylamino)pyrazolo[1,5-a]pyrazin-3-yl)oxy)-1H-imidazo[4,5-b]pyridin-2-yl)amino)-1-methyl-6-oxo-3-(trifluoromethyl)-1,6-dihydropyridine-2-carbonitrile]
10 to 50	CNc1nccn2ncc(Oc3cnc4nc(Nc5cc6c(c(C(F)(F)F)c5)C(C)(C)N(C)C6=O)n(C)c4c3Cl)c12 [Example I-234, 6-((7-chloro-1-methyl-6-((4-(methylamino)pyrazolo[1,5-a]pyrazin-3-yl)oxy)-1H-imidazo[4,5-b]pyridin-2-yl)amino)-2,3,3-trimethyl-4-(trifluoromethyl)isoindolin-1-one]
10 to 50	CNc1nccn2ncc(Oc3cnc4nc(Nc5cc(C(F)(F)F)c(CN(C)C)cc5F)n(C)c4c3Cl)c12 [Example I-235, 7-chloro-N-(4-((dimethylamino)methyl)-2-fluoro-5-(trifluoromethyl)phenyl)-1-methyl-6-((4-(methylamino)pyrazolo[1,5-a]pyrazin-3-yl)oxy)-1H-imidazo[4,5-b]pyridin-2-amine]
< 10	CNc1nccn2ncc(Oc3cnc4nc(Nc5cc(C(F)(F)F)n(C6CC7(COC7)C6)n5)n(C)c4c3Cl)c12 [Example I-236, N-(1-(2-oxaspiro[3.3]heptan-6-yl)-5-(trifluoromethyl)-1H-pyrazol-3-yl)-7-chloro-1-methyl-6-((4-(methylamino)pyrazolo[1,5-a]pyrazin-3-yl)oxy)-1H-imidazo[4,5-b]pyridin-2-amine]
10 to 50	Cn1c(Nc2cc(N3CCC(O)CC3)cc(C(F)(F)F)c2)nc2ncc(Oc3cnn4ccncc34)c(Cl)c21 [Example I-237, 1-(3-((7-chloro-1-methyl-6-(pyrazolo[1,5-a]pyrazin-3-yloxy)-1H-imidazo[4,5-b]pyridin-2-yl)amino)-5-(trifluoromethyl)phenyl)piperidin-4-ol]
< 10	Cn1c(Nc2cc(N3CC[C@@H](O)C3)cc(C(F)(F)F)c2)nc2ncc(Oc3cnn4ccncc34)c(Cl)c21 [Example I-238, (R)-1-(3-((7-chloro-1-methyl-6-(pyrazolo[1,5-a]pyrazin-3-yloxy)-1H-imidazo[4,5-b]pyridin-2-yl)amino)-5-(trifluoromethyl)phenyl)pyrrolidin-3-ol]
50 to 1000	CNc1nccn2ncc(Oc3cnc4nc(Nc5cc6c(c(C(F)(F)F)c5)C(C)(C)N(C)C6=O)n(C)c4c3C#N)c12 [Example I-240, 1-methyl-6-((4-(methylamino)pyrazolo[1,5-a]pyrazin-3-yl)oxy)-2-((1,1,2-trimethyl-3-oxo-7-(trifluoromethyl)isoindolin-5-yl)amino)-1H-imidazo[4,5-b]pyridine-7-carbonitrile]
< 10	CNc1nccn2ncc(Oc3cnc4nc(Nc5cc(OC[C@@H]6CCCN6C)cc(C(F)(F)F)c5)n(C)c4c3Cl)c12 [Example I-241, (S)-7-chloro-1-methyl-6-((4-(methylamino)pyrazolo[1,5-a]pyrazin-3-yl)oxy)-N-(3-((1-methylpyrrolidin-2-yl)methoxy)-5-(trifluoromethyl)phenyl)-1H-imidazo[4,5-b]pyridin-2-amine]
< 10	CNc1nccn2ncc(Oc3cnc4nc(Nc5cc(OC[C@H]6CCCN6C)cc(C(F)(F)F)c5)n(C)c4c3Cl)c12 [Example I-242, (R)-7-chloro-1-methyl-6-((4-(methylamino)pyrazolo[1,5-a]pyrazin-3-yl)oxy)-N-(3-((1-methylpyrrolidin-2-yl)methoxy)-5-(trifluoromethyl)phenyl)-1H-imidazo[4,5-b]pyridin-2-amine]
< 10	CN1CCC[C@H]1COc1cc(Nc2nc3ncc(Oc4cnn5ccncc45)c(Cl)c3n2C)cc(C(F)(F)F)c1 [Example I-243, (S)-7-chloro-1-methyl-N-(3-((1-methylpyrrolidin-2-yl)methoxy)-5-(trifluoromethyl)phenyl)-6-(pyrazolo[1,5-a]pyrazin-3-yloxy)-1H-imidazo[4,5-b]pyridin-2-amine]
< 10	CN1CCC[C@@H]1COc1cc(Nc2nc3ncc(Oc4cnn5ccncc45)c(Cl)c3n2C)cc(C(F)(F)F)c1 [Example I-244, (R)-7-chloro-1-methyl-N-(3-((1-methylpyrrolidin-2-yl)methoxy)-5-(trifluoromethyl)phenyl)-6-(pyrazolo[1,5-a]pyrazin-3-yloxy)-1H-imidazo[4,5-b]pyridin-2-amine]
10 to 50	CNc1nccn2ncc(Oc3cnc4nc(Nc5cc(CN6CC(F)C6)cc(C(F)(F)F)c5)n(C)c4c3Cl)c12 [Example I-246, 7-chloro-N-(3-((3-fluoroazetidin-1-yl)methyl)-5-(trifluoromethyl)phenyl)-1-methyl-6-((4-(methylamino)pyrazolo[1,5-a]pyrazin-3-yl)oxy)-1H-imidazo[4,5-b]pyridin-2-amine]
10 to 50	CNc1nccn2ncc(Oc3cnc4nc(Nc5cc(CN6CC(OC)C6)cc(C(F)(F)F)c5)n(C)c4c3Cl)c12 [Example I-247, 7-chloro-N-(3-((3-methoxyazetidin-1-yl)methyl)-5-(trifluoromethyl)phenyl)-1-methyl-6-((4-(methylamino)pyrazolo[1,5-a]pyrazin-3-yl)oxy)-1H-imidazo[4,5-b]pyridin-2-amine]
< 10	Cn1cc(C(F)(F)F)cc(Nc2nc3ncc(Oc4cnn5ccnc(NCCN6CCOCC6)c45)c(Cl)c3n2C)c1=O [Example I-248, 3-((7-chloro-1-methyl-6-((4-((2-morpholinoethyl)amino)pyrazolo[1,5-a]pyrazin-3-yl)oxy)-1H-imidazo[4,5-b]pyridin-2-yl)amino)-1-methyl-5-(trifluoromethyl)pyridin-2(1H)-one]
10 to 50	CNc1nccn2ncc(Oc3cnc4nc(Nc5cc(CN6CC[C@H](OC)C6)cc(C(F)(F)F)c5)n(C)c4c3Cl)c12 [Example I-249, (S)-7-chloro-N-(3-((3-methoxypyrrolidin-1-yl)methyl)-5-(trifluoromethyl)phenyl)-1-methyl-6-((4-(methylamino)pyrazolo[1,5-a]pyrazin-3-yl)oxy)-1H-imidazo[4,5-b]pyridin-2-amine]
10 to 50	CNc1nccn2ncc(Oc3cnc4nc(Nc5cc(CN6CC[C@@H](OC)C6)cc(C(F)(F)F)c5)n(C)c4c3Cl)c12 [Example I-250, (R)-7-chloro-N-(3-((3-methoxypyrrolidin-1-yl)methyl)-5-(trifluoromethyl)phenyl)-1-methyl-6-((4-(methylamino)pyrazolo[1,5-a]pyrazin-3-yl)oxy)-1H-imidazo[4,5-b]pyridin-2-amine]
< 10	CNc1nccn2ncc(Oc3cnc4nc(Nc5cc(C(C)(C)C)n([C@H]6CCN(C)C6)n5)n(C)c4c3Cl)c12 [Example I-251, (S)—N-(5-(tert-butyl)-1-(1-methylpyrrolidin-3-yl)-1H-pyrazol-3-yl)-7-chloro-1-methyl-6-((4-(methylamino)pyrazolo[1,5-a]pyrazin-3-yl)oxy)-1H-imidazo[4,5-b]pyridin-2-amine]
10 to 50	CNc1nccn2ncc(Oc3cnc4nc(Nc5cc(C(C)(C)C)n([C@@H]6CCN(C)C6)n5)n(C)c4c3Cl)c12 [Example I-252, (R)—N-(5-(tert-butyl)-1-(1-methylpyrrolidin-3-yl)-1H-pyrazol-3-yl)-7-chloro-1-methyl-6-((4-(methylamino)pyrazolo[1,5-a]pyrazin-3-yl)oxy)-1H-imidazo[4,5-b]pyridin-2-amine]
< 10	Cc1nc(Nc2nc3ncc(Oc4cnn5ccncc45)c(Cl)c3n2C)nc(C)c1C1CCCC1 [Example I-253, 7-chloro-N-(5-cyclopentyl-4,6-dimethylpyrimidin-2-yl)-1-methyl-6-(pyrazolo[1,5-a]pyrazin-3-yloxy)-1H-imidazo[4,5-b]pyridin-2-amine]
< 10	CNc1nccn2ncc(Oc3cnc4nc(Nc5cc(C6CCN(C)CC6)cc(C(F)(F)F)c5)n(C)c4c3Cl)c12 [Example I-254, 7-chloro-1-methyl-6-((4-(methylamino)pyrazolo[1,5-a]pyrazin-3-yl)oxy)-N-(3-(1-methylpiperidin-4-yl)-5-(trifluoromethyl)phenyl)-1H-imidazo[4,5-b]pyridin-2-amine]
< 10	CNc1nccn2ncc(Oc3cnc4nc(Nc5cc(CN(C)C)cc(C(F)(F)F)c5)n(C)c4c3Cl)c12 [Example I-255, 7-chloro-N-(3-((dimethylamino)methyl)-5-(trifluoromethyl)phenyl)-1-methyl-6-((4-(methylamino)pyrazolo[1,5-a]pyrazin-3-yl)oxy)-1H-imidazo[4,5-b]pyridin-2-amine]
< 10	Cn1c(Nc2cc(CN3CCC3)cc(C(F)(F)F)c2)nc2ncc(Oc3cnn4ccncc34)c(Cl)c21 [Example I-256, N-(3-(azetidin-1-ylmethyl)-5-(trifluoromethyl)phenyl)-7-chloro-1-methyl-6-(pyrazolo[1,5-a]pyrazin-3-yloxy)-1H-imidazo[4,5-b]pyridin-2-amine]
< 10	Cn1c(Nc2cc(CN3CC(O)C3)cc(C(F)(F)F)c2)nc2ncc(Oc3cnn4ccncc34)c(Cl)c21 [Example I-258, 1-(3-((7-chloro-1-methyl-6-(pyrazolo[1,5-a]pyrazin-3-yloxy)-1H-imidazo[4,5-b]pyridin-2-yl)amino)-5-(trifluoromethyl)benzyl)azetidin-3-ol]
10 to 50	CNc1nccn2ncc(Oc3cnc4nc(Nc5cc(OC6CN(C)C6)cc(C(F)(F)F)c5)n(C)c4c3Cl)c12 [Example I-259, 7-chloro-1-methyl-6-((4-(methylamino)pyrazolo[1,5-a]pyrazin-3-yl)oxy)-N-(3-((1-methylazetidin-3-yl)oxy)-5-(trifluoromethyl)phenyl)-1H-imidazo[4,5-b]pyridin-2-amine]
< 10	Cn1cc(C(F)(F)F)cc(Nc2nc3ncc(Oc4cnc5[nH]ncc5c4)c(C#N)c3n2C)c1=O [Example I-260, 6-((1H-pyrazolo[3,4-b]pyridin-5-yl)oxy)-1-methyl-2-((1-methyl-2-oxo-5-(trifluoromethyl)-1,2-dihydropyridin-3-yl)amino)-1H-imidazo[4,5-b]pyridine-7-carbonitrile]
